Literature values in patent publication US20070166389A1, “Stabilized lyophilized blood platelets” (priority 2005, published 2007).

Key:
[1] = dosages effective for increasing bile salt secretion
[2] = test system: sickle erythrocytes; details: glyceraldehyde treatment in vitro

deleterious effects of the treatment [2]	Structure (SMILES)	abnormal symptoms in liver or kidney [1]	life span in vivo of sickle erythrocytes [2]
	COC(=O)C1=CO[C@@H](O)[C@@H]2C(CO)=CC[C@H]12 [genipin]	do not cause any abnormal symptoms in the liver or kidney	
failed to show any deleterious effects	O=CC(O)CO (stereo not drawn) [glyceraldehyde]		prolongation of the life span of sickle erythrocytes
